Converted amounts (≈) assume the structure as drawn. Where two headings read alike, the source gives them in different places.
Legend:
Type in all cases: cell-based
[1] = system: Staphylococcus aureus (MRSA); assay: MIC agar dilution, micro-organism 12 (11939); conditions: Staphylococcus aureus (MRSA) 11939
In short: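 Agar dilution in Isosensitest/CCEY agar with egg yolk and lysed horse blood; compounds as aqueous emulsions (myristyl and lauryl alcohol with 1-methyl-2-pyrrolidone and Tween 20). 1 µL spots of 1/15-diluted 0.5 McFarland suspensions, 37 °C aerobic, read at 22 and 48 h; MIC (mmol/L) is lowest concentration giving <10 colonies.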

[2] = system: Gram negative bacteria, Gram positive bacteria and pathogenic yeasts; assay: MIC agar dilution, summary statements over the micro-organisms tested (Tables I, IX)
Excerpt: For a better understanding, the present invention will now be more particularly described, by way of non-limiting example only, as follows. The micro-organisms shown in Table I overleaf were acquired from the National Collection of Type Cultures (NCTC), Colindale, United Kingdom; the American Type Culture Collection (ATCC), Manassas, United States and the National Collection of Pathogenic Fungi (NCPF), Colindale, United Kingdom. They include Gram negative bacteria, Gram positive bacteria and pathogenic yeasts.
Throughout the period of testing the microbial strains were subcultured and incubated for 18-20 hours at 37° C. on a weekly basis. Horse blood agar plates were used to sustain the micro-organisms both prior to and throughout testing. The alkoxylated alkanols listed in Table II below were obtained (these are obtainable from Sigma-Aldrich Company Ltd, Dorset, England), each having a GC purity of at least 97%.
(§1) Molar equivalent concentrations were used to allow comparison between compounds of differing molecular mass. Due to weighing difficulties, any compound in solid form was melted in a water bath prior to dilution. To make ten-times strength concentrations, which takes into account agar dilution, 0.0352 mmol of each compound was weighed into plastic universal bottles and 4 mL of sterile distilled water (SDW) was added. To produce a homogenous emulsion the universals were vortexed; once achieved the emulsions were serial diluted by adding 2 mL to 2 mL of SDW.
Myristyl alcohol and lauryl alcohol were re-weighed and dissolved in 25 μL of the polar solvent 1-methyl-2-pyrrolidone (M6762; Sigma-Aldrich) in sterile glass universals due to an inability to achieve an even suspension. To maintain an even emulsion in the presence of SDW 37.5 μL of the non-ionic detergent Tween 20 (P1379, Sigma-Aldrich) was also added. 3.9375 mL of SDW was added to these, to create a 4 mL volume; they were vortexed and diluted as before.
(§2) For every 100 mL of Isosensitest agar (IST) (CM0471; Oxoid, Basingstoke, England), 3.1 g of the IST powder was added to 100 mL SDW (as per manufacturer's instructions) and sterilised for 15 minutes at 121° C. Once sterilised, the molten agar was cooled to 50° C. in a water-bath. Subsequently 4.8 g of CCEY powder (BC2160; Bioconnections, Wetherby, England), also known as Brazier's medium, was added to 100 mL SDW for every 100 mL of agar needed. This was then sterilised for 15 minutes at 121° C. Once sterilised the molten agar was cooled to 50° C. in a water-bath and 4 mL of egg-yolk emulsion (S2073; TCS Biosciences Ltd, Buckingham, United Kingdom) and 1 mL of lysed defibrinated horse blood (HB035; TCS Biosciences Ltd, Buckingham, United Kingdom) were also added for every 100 mL needed. Horse blood lysis is achieved by dilution to half concentration with SDW; when fully lysed the mixture will turn dark red in colour.
(§3) 18 mL agar was added to each universal and then poured into sterile Petri dishes. This step creates a 1/10 dilution resulting in agar plates of the required strength. Control plates for each set of strains were created by adding 18 mL of agar to 2 mL of SDW.
(§4) Suspensions of each bacterial species were prepared with a density equal to that of a 0.5 McFarland standard using a densitometer. All suspensions were made using sterile distilled water and fresh 18-20 hour cultures. As a 0.5 McFarland standard contains 1.5×10^8 CFU/mL and the multipoint inoculators applies 1 μL spots of liquid, each bacterial suspension was diluted 1/15 (20 μL suspension to 280 μL sterile distilled water).
Bacterial suspensions were prepared from fresh 18-24 hour cultures as previously described. 1 μL of each strain was inoculated onto all 100 agar plates containing a different chemical concentration and the 2 control plates. This was done using a multipoint inoculator which inoculates 20 strains per plate. All plates were incubated for 22 hours at 37° C. in aerobic conditions. […]

MRSA BEL 97598 = assay: MIC agar dilution, MRSA strain 34; conditions: Staphylococcus aureus
Description: as §1, §2, §3, §4
(§5) Bacterial suspensions were prepared from fresh 18-24 hour cultures as previously described. 1 μL of each strain was inoculated onto all 100 agar plates containing a different chemical concentration and the 2 control plates. This was done using a multipoint inoculator which inoculates 20 strains per plate. All plates were incubated for 22 hours at 37° C. in aerobic conditions.
(§6) Each plate was examined for bacterial growth after 22 and 48 hours, with each being incubated in between examinations. A positive result was recorded as growth of ≧10 colonies. A negative result was recorded as growth of <10 colonies as this is equivalent to 99.9% inhibition. The lowest concentration of chemical that inhibited growth was recorded as the MIC. The results are recorded in Table IV below, where the numbers are quoted in mmol/L.
(§7) Given the positive performance of the ethoxylates of lauryl alcohol in reducing the MIC for a number of the micro-organisms tested, further MIC testing of Laureth-1 [C12E1] through to Laureth-8 [C12E8] was conducted on each of the following: • 10 strains of vancomycin-resistant enterococci (VRE)—listed in Table V below; and • 20 strains of methicillin-resistant Staphylococcus aureus (MRSA)—listed in Table VI.
(§8) The alkanol, alkanol derivatives, agar plates, and inocula were all prepared in the same way as described above.
(§9) The plates were examined in the same manner as described above and the results are recorded in Table VII below, where the numbers are quoted in mmol/L.

MRSA EMRSA 16 21354/95 = assay: MIC agar dilution, MRSA strain 44; conditions: Staphylococcus aureus
Description: as §1, §2, §3, §4, §5, §6, §7, §8, §9

[3] = system: Enterococcus faecium (VRE) 255693 N. Tyneside; assay: MIC agar dilution, VRE strain 22
Description: as §1, §2, §3, §4, §5, §6, §7, §8, §9

[4] = system: Enterococcus faecium (VRE) MB310; assay: MIC agar dilution, VRE strain 29
Description: as §1, §2, §3, §4, §5, §6, §7, §8, §9

[5] = system: Enterococcus faecium (VRE) MB 305; assay: MIC agar dilution, VRE strain 25
Description: as §1, §2, §3, §4, §5, §6, §7, §8, §9

MRSA FIN 54518 (E7) = assay: MIC agar dilution, MRSA strain 31; conditions: Staphylococcus aureus
Description: as §1, §2, §3, §4, §5, §6, §7, §8, §9

[6] = system: Enterococcus faecium (VRE) MB 3137; assay: MIC agar dilution, VRE strain 26
Description: as §1, §2, §3, §4, §5, §6, §7, §8, §9

[7] = Staphylococcus aureus, MRSA, 22 h, 22 hrs, read-out: MIC
[8] = Staphylococcus aureus, MRSA, 48 h, 48 hrs, read-out: MIC

Row | SMILES | MIC [1, 7] [µM] | MIC [1, 8] [µM] | MIC (MRSA BEL 97598; 22 hrs) [µM] | MIC (MRSA BEL 97598; 48 hrs) [µM] | MIC (MRSA EMRSA 16 21354/95; 22 hrs) [µM] | MIC (MRSA EMRSA 16 21354/95; 48 hrs) [µM] | MIC ([3]; 22 hrs) [µM] | MIC ([3]; 48 hrs) [µM] | MIC ([4]; 22 hrs) [µM] | MIC ([4]; 48 hrs) [µM] | MIC ([5]; 22 hrs) [µM] | MIC ([5]; 48 hrs) [µM] | MIC (MRSA FIN 54518 (E7); 22 hrs) [µM] | MIC (MRSA FIN 54518 (E7); 48 hrs) [µM] | MIC ([6]; 22 hrs) [µM] | MIC ([6]; 48 hrs) [µM] | MIC ([2]; read-out: MIC) [µM] | further results
1 | CCCCCCCCCCCCCCCCO [C0, 1-Hexadecanol, reference compound] | > 880 | > 880 | – | – | – | – | – | – | – | – | – | – | – | – | – | – | – | –
2 | CCCCCCCCCCCCCOCCOCCOCCOCCOCCOCCO [C13E6, polyoxyethylene (6) tridecyl alcohol] | – | – | – | – | – | – | – | – | – | – | – | – | – | – | – | – | – | MIC ([1]; 22 hrs): 110 µM (≈ 51.1 µg/mL); MIC ([1]; 48 hrs): 110 µM (≈ 51.1 µg/mL); MIC ([2]; over the micro-organisms tested or some of them): less than 0.88 mmol/L
3 | CCCCCCCCCCCCOCCO [L1, Ethylene Glycol Monododecyl Ether] | 440 (≈ 101 µg/mL) | 440 (≈ 101 µg/mL) | 220 (≈ 50.7 µg/mL) | 220 (≈ 50.7 µg/mL) | 220 (≈ 50.7 µg/mL) | 220 (≈ 50.7 µg/mL) | 440 (≈ 101 µg/mL) | 440 (≈ 101 µg/mL) | 440 (≈ 101 µg/mL) | 440 (≈ 101 µg/mL) | 440 (≈ 101 µg/mL) | 880 (≈ 203 µg/mL) | 220 (≈ 50.7 µg/mL) | 440 (≈ 101 µg/mL) | 440 (≈ 101 µg/mL) | 440 (≈ 101 µg/mL) | ≤ 440 | –
4 | CCCCCCCCCCCCOCCOCCO [L2, Diethylene Glycol Monododecyl Ether] | 110 (≈ 30.2 µg/mL) | 110 (≈ 30.2 µg/mL) | 110 (≈ 30.2 µg/mL) | 220 (≈ 60.4 µg/mL) | 110 (≈ 30.2 µg/mL) | 110 (≈ 30.2 µg/mL) | 440 (≈ 121 µg/mL) | 440 (≈ 121 µg/mL) | 880 (≈ 242 µg/mL) | 880 (≈ 242 µg/mL) | 880 (≈ 242 µg/mL) | 880 (≈ 242 µg/mL) | 220 (≈ 60.4 µg/mL) | 220 (≈ 60.4 µg/mL) | > 880 | > 880 | – | –
5 | CCCCCCCCCCCCOCCOCCOCCO [L3, Triethylene Glycol Monododecyl Ether] | 110 (≈ 35 µg/mL) | 110 (≈ 35 µg/mL) | 110 (≈ 35 µg/mL) | 110 (≈ 35 µg/mL) | 110 (≈ 35 µg/mL) | 110 (≈ 35 µg/mL) | 880 (≈ 280 µg/mL) | > 880 | 440 (≈ 140 µg/mL) | 440 (≈ 140 µg/mL) | 440 (≈ 140 µg/mL) | 440 (≈ 140 µg/mL) | 220 (≈ 70.1 µg/mL) | 440 (≈ 140 µg/mL) | 880 (≈ 280 µg/mL) | > 880 | ~110 (≈ 35 µg/mL) | –
6 | CCCCCCCCCCCCOCCOCCOCCOCCO [L4, Tetraethylene Glycol Monododecyl Ether] | 110 (≈ 39.9 µg/mL) | 110 (≈ 39.9 µg/mL) | 110 (≈ 39.9 µg/mL) | 110 (≈ 39.9 µg/mL) | 55 (≈ 19.9 µg/mL) | 55 (≈ 19.9 µg/mL) | 440 (≈ 160 µg/mL) | 880 (≈ 319 µg/mL) | 110 (≈ 39.9 µg/mL) | 110 (≈ 39.9 µg/mL) | 110 (≈ 39.9 µg/mL) | 110 (≈ 39.9 µg/mL) | 220 (≈ 79.8 µg/mL) | 440 (≈ 160 µg/mL) | 880 (≈ 319 µg/mL) | > 880 | ~110 (≈ 39.9 µg/mL) | –
7 | CCCCCCCCCCCCOCCOCCOCCOCCOCCO [L5, Pentaethylene Glycol Monododecyl Ether] | 110 (≈ 44.7 µg/mL) | 220 (≈ 89.5 µg/mL) | 110 (≈ 44.7 µg/mL) | 110 (≈ 44.7 µg/mL) | 110 (≈ 44.7 µg/mL) | 110 (≈ 44.7 µg/mL) | 220 (≈ 89.5 µg/mL) | 220 (≈ 89.5 µg/mL) | 110 (≈ 44.7 µg/mL) | 110 (≈ 44.7 µg/mL) | 110 (≈ 44.7 µg/mL) | 110 (≈ 44.7 µg/mL) | 440 (≈ 179 µg/mL) | 440 (≈ 179 µg/mL) | 440 (≈ 179 µg/mL) | > 880 | ~110 (≈ 44.7 µg/mL) | –
8 | CCCCCCCCCCCCOCCOCCOCCOCCOCCOCCO [L6, Hexaethylene Glycol Monododecyl Ether] | 110 (≈ 49.6 µg/mL) | 110 (≈ 49.6 µg/mL) | 220 (≈ 99.1 µg/mL) | 220 (≈ 99.1 µg/mL) | 220 (≈ 99.1 µg/mL) | 440 (≈ 198 µg/mL) | 440 (≈ 198 µg/mL) | > 880 | 220 (≈ 99.1 µg/mL) | 220 (≈ 99.1 µg/mL) | 220 (≈ 99.1 µg/mL) | 220 (≈ 99.1 µg/mL) | > 440 | > 440 | 880 (≈ 397 µg/mL) | > 880 | ~110 (≈ 49.6 µg/mL) | –
9 | CCCCCCCCCCCCOCCOCCOCCOCCOCCOCCOCCO [L7, Heptaethylene Glycol Monododecyl Ether] | – | – | > 440 | > 440 | > 440 | > 440 | > 880 | > 880 | 110 (≈ 54.4 µg/mL) | 110 (≈ 54.4 µg/mL) | 220 (≈ 109 µg/mL) | 220 (≈ 109 µg/mL) | > 440 | > 440 | > 880 | > 880 | – | MIC ([1]; 22 hrs, read-out: MIC): 220 µM (≈ 109 µg/mL); MIC ([1]; 48 hrs, read-out: MIC): 220 µM (≈ 109 µg/mL)
10 | CCCCCCCCCCCCOCCOCCOCCOCCOCCOCCOCCOCCO [L8, Octaethylene Glycol Monododecyl Ether] | 220 (≈ 119 µg/mL) | 440 (≈ 237 µg/mL) | > 440 | > 440 | > 440 | > 440 | > 880 | > 880 | > 880 | > 880 | > 880 | > 880 | > 440 | > 440 | > 880 | > 880 | – | –
